The record followed here is patent publication US11208412B2 (DAEGU-GYEONGBUK MEDICAL INNOVATION FOUNDATION, priority 2017, dated 2021).

The structures appear in SMILES notation.

Assay in all cases: Kinase selectivity, DiscoverX scanMAX Kinase assay panel (% control)
Format in all cases: binding

The target in experiment [1] is T1, kinases of the scanMAX Kinase assay panel (Homo sapiens, UniProt P43405).
T1 construct: purchased DiscoverX Co. (contract measurement) scanMAX Kinase assay panel
The following applies: kinase SYK; 1 uM in DMSO. The method in brief: (§1)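 A 1 uM DMSO solution of compound was applied across the panel kinases, and results were expressed as % control relative to DMSO (100%) and a positive control (0%).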

For experiment [2], the target named is T2, kinases of the scanMAX Kinase assay panel (Homo sapiens, UniProt Q08345).
T2 construct: purchased DiscoverX Co. (contract measurement) scanMAX Kinase assay panel
As to conditions: DDR1; 1 uM. The procedure, abridged: as §1

In experiment [3] the target is T3, kinases of the scanMAX Kinase assay panel (Homo sapiens, UniProt P00519, F317L).
T3 construct: purchased DiscoverX Co. (contract measurement) scanMAX Kinase assay panel
The following applies: 1 uM. The procedure, abridged:
as §1

The target in experiment [4] is T4, kinases of the scanMAX Kinase assay panel (Homo sapiens, UniProt Q9Y2K2).
T4 construct: purchased DiscoverX Co. (contract measurement) scanMAX Kinase assay panel
The following applies: QSK; 1 uM. The method in brief: as §1

Experiment [5] concerns the target T5, kinases of the scanMAX Kinase assay panel (Homo sapiens, UniProt Q99640).
T5 construct: purchased DiscoverX Co. (contract measurement) scanMAX Kinase assay panel
T5 sequence (Q99640 1-499): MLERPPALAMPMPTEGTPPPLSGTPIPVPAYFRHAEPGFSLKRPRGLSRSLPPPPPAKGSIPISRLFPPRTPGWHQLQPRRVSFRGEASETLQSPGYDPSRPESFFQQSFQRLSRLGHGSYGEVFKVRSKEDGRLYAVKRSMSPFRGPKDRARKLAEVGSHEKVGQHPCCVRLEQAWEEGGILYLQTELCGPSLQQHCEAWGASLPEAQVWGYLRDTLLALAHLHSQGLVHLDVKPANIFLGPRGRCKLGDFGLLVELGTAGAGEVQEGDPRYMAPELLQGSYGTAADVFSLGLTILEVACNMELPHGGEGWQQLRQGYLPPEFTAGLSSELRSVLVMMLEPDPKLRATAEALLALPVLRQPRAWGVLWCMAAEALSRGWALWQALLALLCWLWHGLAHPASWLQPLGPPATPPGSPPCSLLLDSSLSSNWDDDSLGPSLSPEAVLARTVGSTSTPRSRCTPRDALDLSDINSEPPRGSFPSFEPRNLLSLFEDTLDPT
The following applies: PKMYT1; 1 uM. The method in brief: as §1

The target of experiment [6] is T6, kinases of the scanMAX Kinase assay panel (Homo sapiens, UniProt O95819).
T6 construct: purchased DiscoverX Co. (contract measurement) scanMAX Kinase assay panel
T6 sequence (O95819 whole entry): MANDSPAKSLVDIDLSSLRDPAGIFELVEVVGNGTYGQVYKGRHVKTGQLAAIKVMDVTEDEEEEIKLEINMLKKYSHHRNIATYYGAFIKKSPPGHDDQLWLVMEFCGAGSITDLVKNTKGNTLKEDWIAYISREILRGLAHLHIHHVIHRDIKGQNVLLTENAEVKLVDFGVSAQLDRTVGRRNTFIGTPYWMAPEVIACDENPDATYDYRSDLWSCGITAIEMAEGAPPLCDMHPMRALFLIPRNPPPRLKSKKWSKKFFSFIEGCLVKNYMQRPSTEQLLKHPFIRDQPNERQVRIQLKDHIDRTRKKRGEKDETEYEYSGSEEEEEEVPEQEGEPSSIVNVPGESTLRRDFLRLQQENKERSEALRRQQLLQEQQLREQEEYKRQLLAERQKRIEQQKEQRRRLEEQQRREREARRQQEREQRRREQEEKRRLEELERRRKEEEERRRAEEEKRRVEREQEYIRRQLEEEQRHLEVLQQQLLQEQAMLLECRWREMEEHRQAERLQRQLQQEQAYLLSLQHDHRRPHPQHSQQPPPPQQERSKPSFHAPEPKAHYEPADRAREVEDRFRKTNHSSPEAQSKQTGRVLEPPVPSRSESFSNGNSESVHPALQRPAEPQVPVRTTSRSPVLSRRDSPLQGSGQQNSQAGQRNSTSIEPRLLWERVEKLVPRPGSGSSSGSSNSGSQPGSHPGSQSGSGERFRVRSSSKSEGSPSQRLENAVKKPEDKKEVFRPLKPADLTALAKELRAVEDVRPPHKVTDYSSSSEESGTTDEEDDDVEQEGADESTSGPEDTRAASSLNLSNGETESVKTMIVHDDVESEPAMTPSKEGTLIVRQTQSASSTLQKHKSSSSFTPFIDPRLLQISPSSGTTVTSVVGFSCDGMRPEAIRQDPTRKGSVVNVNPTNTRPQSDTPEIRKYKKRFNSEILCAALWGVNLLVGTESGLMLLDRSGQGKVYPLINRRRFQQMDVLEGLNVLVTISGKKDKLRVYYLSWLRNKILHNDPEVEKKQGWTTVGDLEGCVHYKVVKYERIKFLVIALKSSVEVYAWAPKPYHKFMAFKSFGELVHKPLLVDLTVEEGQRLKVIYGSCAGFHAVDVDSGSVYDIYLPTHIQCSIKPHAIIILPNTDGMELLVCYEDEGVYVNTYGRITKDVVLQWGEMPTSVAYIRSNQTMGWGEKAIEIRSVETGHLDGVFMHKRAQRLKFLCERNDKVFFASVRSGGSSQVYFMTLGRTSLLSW
As to conditions: MAP4K4; 1 uM. The method in brief:
as §1

The target in experiment [7] is T7, kinases of the scanMAX Kinase assay panel (Homo sapiens, UniProt Q9P0L2).
T7 construct: purchased DiscoverX Co. (contract measurement) scanMAX Kinase assay panel
T7 sequence (Q9P0L2 whole entry): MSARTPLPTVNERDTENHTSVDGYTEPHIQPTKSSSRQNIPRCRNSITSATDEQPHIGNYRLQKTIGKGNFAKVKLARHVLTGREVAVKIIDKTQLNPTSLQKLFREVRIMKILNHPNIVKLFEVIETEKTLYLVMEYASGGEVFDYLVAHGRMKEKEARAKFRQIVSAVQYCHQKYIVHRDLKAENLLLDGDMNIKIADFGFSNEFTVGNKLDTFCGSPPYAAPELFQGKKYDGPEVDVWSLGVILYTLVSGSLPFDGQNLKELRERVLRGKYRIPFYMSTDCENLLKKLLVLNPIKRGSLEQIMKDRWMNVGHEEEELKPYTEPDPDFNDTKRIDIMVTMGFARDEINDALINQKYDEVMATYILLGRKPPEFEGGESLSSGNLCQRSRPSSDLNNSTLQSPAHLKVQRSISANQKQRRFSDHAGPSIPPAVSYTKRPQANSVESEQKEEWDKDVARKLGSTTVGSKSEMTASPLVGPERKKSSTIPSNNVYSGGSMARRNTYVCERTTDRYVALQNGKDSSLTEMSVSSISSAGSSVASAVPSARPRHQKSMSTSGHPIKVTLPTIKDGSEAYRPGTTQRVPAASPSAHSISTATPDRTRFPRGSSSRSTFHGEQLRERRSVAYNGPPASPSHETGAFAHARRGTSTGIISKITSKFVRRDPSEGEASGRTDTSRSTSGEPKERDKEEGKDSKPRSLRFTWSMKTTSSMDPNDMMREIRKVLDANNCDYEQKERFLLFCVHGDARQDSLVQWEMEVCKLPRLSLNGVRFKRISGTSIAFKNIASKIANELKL
As to conditions: MARK1; 1 uM. The procedure, abridged: as §1

Experiment [8] has as its target T8, kinases of the scanMAX Kinase assay panel (Homo sapiens, UniProt Q13523).
T8 construct: purchased DiscoverX Co. (contract measurement) scanMAX Kinase assay panel
As to conditions: PRP4; 1 uM. The method in brief: as §1

Experiment [9] has as its target T9, kinases of the scanMAX Kinase assay panel (Homo sapiens, UniProt O95835).
T9 construct: purchased DiscoverX Co. (contract measurement) scanMAX Kinase assay panel
T9 sequence (O95835 1-1130): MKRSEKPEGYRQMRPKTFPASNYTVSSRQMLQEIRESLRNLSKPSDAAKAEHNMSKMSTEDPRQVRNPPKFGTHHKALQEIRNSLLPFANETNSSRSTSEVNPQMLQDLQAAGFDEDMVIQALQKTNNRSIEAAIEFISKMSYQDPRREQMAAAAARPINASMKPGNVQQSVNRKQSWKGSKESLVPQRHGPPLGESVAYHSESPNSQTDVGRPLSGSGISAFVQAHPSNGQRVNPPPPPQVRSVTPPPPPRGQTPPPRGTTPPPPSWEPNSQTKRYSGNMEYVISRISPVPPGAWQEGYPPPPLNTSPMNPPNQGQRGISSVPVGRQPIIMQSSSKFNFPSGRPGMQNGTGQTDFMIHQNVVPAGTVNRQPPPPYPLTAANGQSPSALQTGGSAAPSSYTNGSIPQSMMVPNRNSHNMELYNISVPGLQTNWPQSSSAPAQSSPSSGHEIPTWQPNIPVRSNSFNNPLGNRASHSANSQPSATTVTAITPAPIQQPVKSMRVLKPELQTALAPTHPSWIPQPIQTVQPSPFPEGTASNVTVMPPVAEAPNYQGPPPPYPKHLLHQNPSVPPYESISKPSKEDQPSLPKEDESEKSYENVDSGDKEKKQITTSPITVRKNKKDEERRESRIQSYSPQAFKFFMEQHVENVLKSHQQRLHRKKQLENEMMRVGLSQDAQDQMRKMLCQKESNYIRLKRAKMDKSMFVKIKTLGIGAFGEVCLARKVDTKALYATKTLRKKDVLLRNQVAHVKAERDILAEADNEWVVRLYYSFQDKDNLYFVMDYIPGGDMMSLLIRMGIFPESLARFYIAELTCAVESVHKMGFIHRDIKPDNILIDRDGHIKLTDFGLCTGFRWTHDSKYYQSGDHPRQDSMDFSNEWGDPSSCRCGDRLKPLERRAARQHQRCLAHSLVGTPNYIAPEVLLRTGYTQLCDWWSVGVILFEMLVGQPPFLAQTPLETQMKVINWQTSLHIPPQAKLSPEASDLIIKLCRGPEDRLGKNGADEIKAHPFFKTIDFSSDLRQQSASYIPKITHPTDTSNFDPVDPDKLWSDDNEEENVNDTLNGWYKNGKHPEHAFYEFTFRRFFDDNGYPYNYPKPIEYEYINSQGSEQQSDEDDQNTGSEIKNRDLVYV
The following applies: LATS1; 1 uM. The procedure, abridged: as §1

Experiment [10] deals with T10, kinases of the scanMAX Kinase assay panel (Homo sapiens, UniProt Q8TDX7).
T10 construct: purchased DiscoverX Co. (contract measurement) scanMAX Kinase assay panel
T10 sequence (Q8TDX7 whole entry): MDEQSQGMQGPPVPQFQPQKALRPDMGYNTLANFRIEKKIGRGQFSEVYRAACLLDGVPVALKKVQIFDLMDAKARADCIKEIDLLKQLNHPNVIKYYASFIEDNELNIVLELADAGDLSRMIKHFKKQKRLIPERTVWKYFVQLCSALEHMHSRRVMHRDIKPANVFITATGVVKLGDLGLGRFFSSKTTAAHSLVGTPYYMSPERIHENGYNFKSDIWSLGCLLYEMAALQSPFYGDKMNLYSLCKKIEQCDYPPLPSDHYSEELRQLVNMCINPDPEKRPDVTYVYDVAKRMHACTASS
As to conditions: NEK7; 1 uM. The procedure, abridged:
as §1

Experiment [11] deals with T11, kinases of the scanMAX Kinase assay panel (Homo sapiens, UniProt Q2M2I8).
T11 construct: purchased DiscoverX Co. (contract measurement) scanMAX Kinase assay panel
T11 sequence (Q2M2I8 whole entry): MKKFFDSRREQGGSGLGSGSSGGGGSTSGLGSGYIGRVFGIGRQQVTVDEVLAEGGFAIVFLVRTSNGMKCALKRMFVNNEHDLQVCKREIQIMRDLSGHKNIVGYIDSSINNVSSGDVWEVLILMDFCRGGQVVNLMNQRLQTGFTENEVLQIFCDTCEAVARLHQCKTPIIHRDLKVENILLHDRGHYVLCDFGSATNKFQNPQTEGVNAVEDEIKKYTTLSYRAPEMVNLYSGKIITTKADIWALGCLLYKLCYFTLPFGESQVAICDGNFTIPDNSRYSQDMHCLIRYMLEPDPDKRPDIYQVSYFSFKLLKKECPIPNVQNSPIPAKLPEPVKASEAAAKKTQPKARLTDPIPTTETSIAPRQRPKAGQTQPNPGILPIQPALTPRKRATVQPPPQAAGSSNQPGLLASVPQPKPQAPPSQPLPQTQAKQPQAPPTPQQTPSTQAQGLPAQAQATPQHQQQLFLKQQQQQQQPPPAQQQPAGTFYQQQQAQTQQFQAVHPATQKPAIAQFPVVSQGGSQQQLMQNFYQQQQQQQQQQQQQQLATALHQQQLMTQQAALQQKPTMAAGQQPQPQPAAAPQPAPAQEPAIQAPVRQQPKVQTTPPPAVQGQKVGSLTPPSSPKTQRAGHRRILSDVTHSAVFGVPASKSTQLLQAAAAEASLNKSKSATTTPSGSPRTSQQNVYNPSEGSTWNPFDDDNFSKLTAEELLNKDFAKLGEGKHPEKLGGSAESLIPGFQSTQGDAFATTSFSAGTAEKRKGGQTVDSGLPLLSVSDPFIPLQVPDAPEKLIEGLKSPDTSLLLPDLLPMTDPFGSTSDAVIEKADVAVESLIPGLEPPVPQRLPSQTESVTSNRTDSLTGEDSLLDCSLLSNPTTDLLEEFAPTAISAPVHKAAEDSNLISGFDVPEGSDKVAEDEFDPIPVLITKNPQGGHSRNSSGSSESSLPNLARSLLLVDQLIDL
The following applies: AAK1; 1 uM. The procedure, abridged:
as §1

The target in experiment [12] is T12, kinases of the scanMAX Kinase assay panel (Homo sapiens, UniProt P04629).
T12 construct: purchased DiscoverX Co. (contract measurement) scanMAX Kinase assay panel
As to conditions: kinase TRKA; 1 uM in DMSO. The procedure, abridged: as §1

Experiment [13] deals with T13, kinases of the scanMAX Kinase assay panel (Homo sapiens, UniProt P53355).
T13 construct: purchased DiscoverX Co. (contract measurement) scanMAX Kinase assay panel
T13 sequence (P53355 whole entry): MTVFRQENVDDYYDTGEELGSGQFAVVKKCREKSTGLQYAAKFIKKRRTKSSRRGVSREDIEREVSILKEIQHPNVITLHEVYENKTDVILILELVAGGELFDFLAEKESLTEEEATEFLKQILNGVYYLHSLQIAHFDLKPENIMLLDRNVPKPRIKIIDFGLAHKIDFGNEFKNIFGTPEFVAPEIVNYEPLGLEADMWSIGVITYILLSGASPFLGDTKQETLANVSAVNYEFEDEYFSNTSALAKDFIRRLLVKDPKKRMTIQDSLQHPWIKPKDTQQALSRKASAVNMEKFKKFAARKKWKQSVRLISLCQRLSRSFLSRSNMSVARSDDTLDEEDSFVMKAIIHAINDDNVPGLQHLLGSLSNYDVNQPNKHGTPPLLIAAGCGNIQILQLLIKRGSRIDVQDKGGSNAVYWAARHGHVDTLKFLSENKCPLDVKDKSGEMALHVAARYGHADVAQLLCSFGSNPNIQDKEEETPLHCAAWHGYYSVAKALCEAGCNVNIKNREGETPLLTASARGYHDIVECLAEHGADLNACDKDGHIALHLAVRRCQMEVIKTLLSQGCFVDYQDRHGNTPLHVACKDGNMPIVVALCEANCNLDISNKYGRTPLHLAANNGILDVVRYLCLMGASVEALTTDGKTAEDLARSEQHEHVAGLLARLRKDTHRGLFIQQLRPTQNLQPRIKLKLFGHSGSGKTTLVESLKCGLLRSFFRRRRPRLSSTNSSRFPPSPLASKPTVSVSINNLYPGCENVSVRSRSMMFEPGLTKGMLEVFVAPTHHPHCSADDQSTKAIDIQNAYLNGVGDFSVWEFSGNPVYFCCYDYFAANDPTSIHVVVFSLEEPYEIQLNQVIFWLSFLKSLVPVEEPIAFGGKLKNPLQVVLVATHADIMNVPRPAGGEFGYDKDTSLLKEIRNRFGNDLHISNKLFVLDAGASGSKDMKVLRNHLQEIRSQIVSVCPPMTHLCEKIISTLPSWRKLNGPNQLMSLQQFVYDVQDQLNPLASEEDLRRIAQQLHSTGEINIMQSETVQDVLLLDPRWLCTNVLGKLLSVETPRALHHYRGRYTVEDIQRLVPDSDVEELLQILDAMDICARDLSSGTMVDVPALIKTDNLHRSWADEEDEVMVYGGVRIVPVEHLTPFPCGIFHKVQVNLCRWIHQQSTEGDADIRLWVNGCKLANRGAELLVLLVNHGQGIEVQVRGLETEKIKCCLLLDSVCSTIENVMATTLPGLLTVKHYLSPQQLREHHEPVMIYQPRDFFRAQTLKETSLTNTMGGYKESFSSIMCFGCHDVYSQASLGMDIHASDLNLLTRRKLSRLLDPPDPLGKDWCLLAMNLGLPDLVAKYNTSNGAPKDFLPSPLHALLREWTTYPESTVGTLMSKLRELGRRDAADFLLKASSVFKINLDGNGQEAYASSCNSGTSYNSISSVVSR
As to conditions: DAPK1; 1 uM. The procedure, abridged:
as §1

With `CC1(Nc2nc(Nc3cnn([C@H]4CCN(C5COC5)C[C@@H]4F)c3Cl)nc3[nH]cc(C#N)c23)CC1` [Example 52, 2-((5-chloro-1-((3S,4S)-3-fluoro-1-(oxetane-3-yl)piperidine-4-yl)-1H-pyrazole-4-yl)amino)((1-methylcyclopropyl)amino)-7H-pyrrolo[2,3-d]pyrimidine-5-carbonitrile], the remaining binding at 1 µM in [1] worked out at 0.4%; in experiment [2], 50%; in experiment [3] (ABL1(F317L)-nonphosphorylated) it was 16%; in [3] (ABL1(F317L)-phosphorylated), 0%; in experiment [4], 87%; in experiment [5] it was 89%. The remaining binding at 1 µM in [6] was 18%; in experiment [7] it was 36%; in experiment [8] it was 19%; in experiment [9], 35%; in [10] it was 97%; in experiment [11], 9.6%. Besides, the remaining binding at 1 µM in experiment [12] was determined as 0.5%; in experiment [13], 12%.

Take `CCNc1nc(Nc2ccc(C(=O)N3CCC(N4CCOCC4)CC3)cc2OC)nc2[nH]cc(C(F)(F)F)c12` [Example 104, (4-((4-(ethylamino)-5-(trifluoromethyl)-7H-pyrrolo[2,3-d]pyrimidine-2-yl)amino)-3-methoxyphenyl)(4-morpholinopiperidine-1-yl)methanone]: the remaining binding at 1 µM in experiment [1] amounted to 70%; in [2], 100%; in experiment [3] (ABL1(F317L)-nonphosphorylated), 74%; in [3] (ABL1(F317L)-phosphorylated) it was 35%; in experiment [4] it was 97%; in [5], 100%. In addition, the remaining binding at 1 µM in experiment [6] is 100%; in experiment [7], 100%; in experiment [8], 89%; in experiment [9] it was 100%; in [10] it was 94%; in experiment [11], 90%. Besides, the remaining binding at 1 µM in experiment [12] worked out at 98%; in [13], 49%.

Take `CNc1nc(Nc2ccc(C(=O)N3CCOCC3)cc2OC)nc2[nH]cc(C#N)c12` [Example 1, 2-((2-methoxy-4-(morpholine-4-carbonyl)phenyl)amino)-4-(methylamino)-7H-pyrrolo[2,3-d]pyrimidine-5-carbonitrile]: the remaining binding at 1 µM turned out to be 62% in experiment [1]; 94% in [2]; 91% in experiment [3] (ABL1(F317L)-nonphosphorylated); 48% in experiment [3] (ABL1(F317L)-phosphorylated); 79% in experiment [4]; 99% in [5]. Also, the remaining binding at 1 µM came out at 82% in experiment [6]; 91% in experiment [7]; 100% in experiment [8]; 100% in [9]; 100% in experiment [10]; 78% in experiment [11]. The remaining binding at 1 µM in [12] turned out to be 67%; in [13], 8.5%.
